“Also recorded” adds a separate entry of the source. Counter-ions that a name gives are not always drawn.
Tests used:
[1] = biological target: T1, recombinant guanylate cyclase reporter cell line (Rattus norvegicus, UniProt P20595); assay: Effect on a recombinant guanylate cyclase reporter cell line; assay type: cell-based
T1 construct: expressed in transfected cells; CHO by own knowledge of the cited Wunder et al. 2005
T1 sequence (P20595 1-619): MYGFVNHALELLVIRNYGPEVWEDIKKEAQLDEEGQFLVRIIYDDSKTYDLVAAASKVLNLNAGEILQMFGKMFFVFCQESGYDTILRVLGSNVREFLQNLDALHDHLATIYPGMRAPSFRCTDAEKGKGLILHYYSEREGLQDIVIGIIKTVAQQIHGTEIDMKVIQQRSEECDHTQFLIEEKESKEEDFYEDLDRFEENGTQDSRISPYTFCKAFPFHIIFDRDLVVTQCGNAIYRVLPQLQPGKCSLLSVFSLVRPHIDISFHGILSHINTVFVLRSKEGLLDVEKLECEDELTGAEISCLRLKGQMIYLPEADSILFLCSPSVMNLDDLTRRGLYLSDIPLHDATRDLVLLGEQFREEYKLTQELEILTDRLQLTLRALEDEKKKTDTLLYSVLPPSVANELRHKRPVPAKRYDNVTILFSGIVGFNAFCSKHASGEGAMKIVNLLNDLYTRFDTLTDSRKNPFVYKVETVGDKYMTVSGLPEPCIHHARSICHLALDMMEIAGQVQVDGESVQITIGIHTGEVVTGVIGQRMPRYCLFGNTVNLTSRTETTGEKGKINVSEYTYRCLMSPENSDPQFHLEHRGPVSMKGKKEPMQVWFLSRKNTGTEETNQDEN
T1 sequence (P19686 1-690 partner): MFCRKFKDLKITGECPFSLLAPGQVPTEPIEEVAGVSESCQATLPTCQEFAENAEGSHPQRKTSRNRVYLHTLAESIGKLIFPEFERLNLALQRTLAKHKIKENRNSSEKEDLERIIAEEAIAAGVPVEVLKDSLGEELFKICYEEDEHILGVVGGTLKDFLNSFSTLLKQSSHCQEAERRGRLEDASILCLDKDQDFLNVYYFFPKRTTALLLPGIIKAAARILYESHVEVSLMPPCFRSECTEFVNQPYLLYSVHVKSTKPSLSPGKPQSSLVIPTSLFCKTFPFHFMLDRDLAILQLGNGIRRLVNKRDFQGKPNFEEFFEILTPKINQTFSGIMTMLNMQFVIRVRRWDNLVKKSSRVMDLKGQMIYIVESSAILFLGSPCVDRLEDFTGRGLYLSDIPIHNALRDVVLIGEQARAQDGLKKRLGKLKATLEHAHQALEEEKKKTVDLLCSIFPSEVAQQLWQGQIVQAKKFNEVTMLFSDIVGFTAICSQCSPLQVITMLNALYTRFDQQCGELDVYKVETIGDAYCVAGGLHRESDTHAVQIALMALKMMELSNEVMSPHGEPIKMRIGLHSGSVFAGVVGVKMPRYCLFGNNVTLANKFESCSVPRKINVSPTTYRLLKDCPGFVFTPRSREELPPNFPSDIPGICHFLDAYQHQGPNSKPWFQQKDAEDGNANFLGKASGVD
Method: B-1. Effect on a Recombinant Guanylate Cyclase Reporter Cell Line
The cellular activity of the compounds according to the invention was determined using a recombinant guanylate cyclase reporter cell line, as described in F. Wunder et al., Anal. Biochem. 339, 104-112 (2005).

[2] = test system: Streptozotocin-induced DR model in rat; assay: Streptozotocin-induced DR model in rat (STZ rat model); assay type: in vivo; settings: STZ diabetic rats, vs vehicle
Method: B-9 Streptozotocin-Induced DR Model in Rat (STZ Rat Model)
135 male 6-week-old male SD rats (200 to 250 g) were randomized to become diabetic or non-diabetic. Following an overnight fast, SD rats were assigned to become diabetic by receiving a single intraperitoneal injection of streptozotocin (55 mg per kg; Sigma-Aldrich, St. Louis, USA) diluted in 0.1M citrate buffer, pH 4.5. Rats were weighed and their blood glucose levels measured (Accu-check Advantage II Blood Glucose Monitor, Roche Diagnostics, USA). Only rats with blood glucose levels greater than 250 mg/dL were considered diabetic (Li et al. 2002). Insulin was administered three times per week to reduce mortality and promote weight gain (2 to 4 units s.c. Humulin NPH, Eli Lilly and Co., Indianapolis, Ind., USA). The pathological events that occur in the early stages of DR were evaluated. Functional read-out of retinal electrical signal in response to light stimulation “b-wave amplitude (μv)” represents inner retinal function. The retinal function ERG (Electroretinography) was tested 2 months after STZ injection according to the method disclosed in McCulloch et al., 2015 and animals were randomized into subgroups with same severity. The animals received treatment after randomization for 2 months and were terminated then after. […]

SMILES: CC(C)CN1CCN(c2ccc(-c3ccc(Cl)cc3N3CCC[C@@H](n4ncc(C(=O)O)c4C(F)F)C3)cc2)CC1 [Example 3, 1-{1-[4-Chloro-4′-(4-isobutylpiperazin-1-yl)[biphenyl]-2-yl]piperidin-3-yl}-5-(difluoromethyl)-1H-pyrazole-4-carboxylic acid hydrochloride]
- EC50 [1]: 2.7 nM
- MEC (minimum effective concentration) ([1]; hydrochloride): 0.6 nM
- b wave amplitude (ERG, retinal function) ([2]; 15 mg/kg oral gavage QD for 2 months, started 2 months after STZ, hydrochloride, 15 mg/kg): significant higher b wave amplitude compared to vehicle treated animals; also recorded: reduces diabetic induced retinal dysfunction and diabetic retinopathy progression
- diabetic retinopathy disease progression (b wave values) ([2]; oral QD, chronic diabetic retinopathy model): prevented disease progression

— patent US20230346777A1, “USE OF SGC ACTIVATORS FOR THE TREATMENT OF OPHTHALMOLOGIC DISEASES” (Bayer Aktiengesellschaft, priority 2020, published 2023)
